The subject of this experiment is SARS-CoV-2 (WIV04). It counts as cell-based. The conditions noted are these: Vero-E6 cells.

`Cc1occc(=O)c1[O-].Cc1occc(=O)c1[O-].Cc1occc(=O)c1[O-].[Ga+3]` [gallium maltolate]: the “in vitro antiviral activity” value (MOI 0.005, 0.1 μM to 100 μM, 24 hours, FIG. 1) was “pronounced, dose-dependent in vitro antiviral activity”. The EC50 (MOI 0.005, viral RNA in culture media by qRT-PCR at 24 hours after treatment, read-out: concentration that inhibited viral replication by 50% (EC50)) is about 14 µM.
